Converted amounts (≈) assume the structure as drawn.
Legend:
[1] = test system: ovarian cancer cells; assay: MTT assay, combination of PTX and CPT; assay type: cell-based; conditions: 48 hour
Method: (§1) Briefly, cells were diluted with culture medium to the seeding density (10^5 cells/mL) and suspended in 96-well tissue culture plates (100 μL/well), and preincubated at 37° C. overnight. Cells were then treated continuously with 10 μL of various concentrations of the anticancer agents to obtain a dose-response curve for each agent. For combination assays, cells were also treated continuously with a total of with 10 μL of various concentrations of PTX and CPT. Each drug concentration was as follows: 6.25-200 ng/mL PTX and 1-50 μg/mL CPT.
(§2) After incubation of 24, 48 and 72 h, 10 μL of MTT solution (5 mg/mL of PBS, filtered) was added to each well and the plates were further incubated for 4 h. 100 μL of extraction buffer (20% w/v SDS dissolved at 37° C. in a solution of 50% Dimethylformamide/50% H2O, 2.5% of 80% Acetic acid 2.5% of 1N HCl (ph 4.7)) was added to solubilize the MTT-formazan product. Absorbance at 570 nm was measured with a microplate reader (SPECTRAmax® PLUS384, Molecular Devices, Sunnyvale Calif.—U.S.A.). Dose response curves were plotted as a percentage of the control cell number, which was obtained from the no-drug exposure sample.

[2] = test system: SKOV3 cells; assay: Cell proliferation assay (MTT), sustained exposure; assay type: cell-based, human
Method: as §1
as §2, with “sample. A semilog scale was used when necessary: IC50 of CPT for SKOV3 and CAOV3.” for “sample.”

[3] = test system: SKOV-3 cells; assay: In-vitro cytotoxicity of implant, implant containing PTX and free PTX (MTT); assay type: cell-based, human
Method: In-vitro cytoxicity of the implant, implant containing PTX and free PTX. The SKOV-3 cells were plated in 6-well plates and cultured in RPMI 1640 supplemented with 1% penicillin/streptomycin solution and 10% fetal bovine serum. The cell line was grown at 37° C. in a humidified incubator equilibrated with 5% CO2. Medium was replaced three times a week and cells were typsinised and subcultured every five days. […] Likewise, PoLi implants of varying sizes were added to the wells. The implants were swelled in 70% ethanol for sterilization purposes prior to incubation with cells. Following a 48 hour incubation period the cell viability was measured using the MTT assay. The MTT dye was added to each well following the specific time period and incubated for 2 hours at 37° C. Cells were then solubilized in 10% SDS. Formazan dye concentrations were then detected using a microplate reader (BioRad) at […] wavelength of 570 nm.

IC50 ([1]; PTX alone) [µg/mL]	decrease in IC50, 24 versus 72 hour time point [2] [fold]	Compound	CPT IC50 ([1]; CPT alone) [µg/mL]	reduction in cells ([3]; 0.050 μg of free PTX, 48 hours) [%]	cell reduction ([3]; 0.2 μg of free PTX, 48 hours) [%]	IC50 ([3]; Homo sapiens, SK-OV-3, 48 hours of incubation) [µg/mL]
–	–	N.N.O=C([O-])C1(C(=O)[O-])CCC1.[Pt+2] [CPT, carboplatin]	35	–	–	–
> 0.2	10	CC(=O)O[C@H]1C(=O)[C@@]2(C)[C@H]([C@H](OC(=O)c3ccccc3)[C@]3(O)C[C@H](OC(=O)[C@H](O)[C@@H](NC(=O)c4ccccc4)c4ccccc4)C(C)=C1C3(C)C)[C@]1(OC(C)=O)CO[C@@H]1C[C@@H]2O [PTX, paclitaxel]	–	64	73	0.0347 (≈ 0.0406 µM)

Source: patent US7901707B2, “Biodegradable biocompatible implant and method of manufacturing same” (priority 2005, dated 2011)
